Experimental findings from ChEMBL document CHEMBL1201862, “PubChem BioAssay data set” (2004) are described below.

Molecules are shown by their SMILES. Calls of active or inactive are those of the source.

The test system of one assay is HeLa. The assay can be described thus: HeLa cell cytotoxicity, dose response, cytotoxicity control for MITF activator project, CellTiter-Glo luminescence, cherry-pick samples (AID 540259). The settings on record: Homo sapiens. It counts as functional, cell-based.
Assay [1] can be described thus: cytotoxicity in MIN6 insulinoma cells, dose response, cytotoxicity control, cell-based, mouse insulinoma (AID 2122).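 Also: confirmatory high-throughput counterscreen run to flag cytotoxic compounds; mouse MIN-6 beta cells carrying an insulin promoter eGFP reporter.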 Type of assay: functional.
The nature of assay [2]: Luminescence Cell-Based Dose Response HTS to Identify Inhibitors of 5'UTR Stem-Loop Driven Prion Protein mRNA Translation in H4 Neuroglioblastoma Cells. [Related pubchem assays: 1827 (Project Summary), 1813 (Primary HTS)]. Type of assay: functional.
The nature of assay [3]: insulin promoter down-regulators in MIN6 cells, imaging, high-content screening, mouse beta cells (AID 1628). Type of assay: functional.
A short description of assay [4]: inhibitors of SNCA 5'UTR-driven reporter translation, confirmation, H4 neuroglioma cells, luminescence (AID 1988). It counts as functional, cell-based.
Assay [5] has as its target Luciferin 4-monooxygenase (Photuris pensylvanica, UniProt Q27757). The assay can be described thus: firefly luciferase enzyme inhibitors, dose response, counter-screen for HSF-1 reporter inhibitor project, biochemical, Cell Titer Glo, luminescence, cherry-picks (AID 588847). On the technique in general: The purpose of a counterscreen is to sort out artefacts and off-target activity.

The nature of assay [6]: inhibitors of firefly luciferase expression or activity, dose response, H4 neuroglioma cells, luminescence (AID 1990). It counts as functional, cell-based.
The target in the next assay is Phospholipase D1 (Homo sapiens, UniProt Q13393). The experiment in a line: PLD1 inhibitor potency in cells, dose response (AID 602151).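 Also: cellular PLD1 assay in Calu-1 cells stimulated with PMA.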 Type of assay: functional.
Chain of Phospholipase D1 (Q13393 whole entry): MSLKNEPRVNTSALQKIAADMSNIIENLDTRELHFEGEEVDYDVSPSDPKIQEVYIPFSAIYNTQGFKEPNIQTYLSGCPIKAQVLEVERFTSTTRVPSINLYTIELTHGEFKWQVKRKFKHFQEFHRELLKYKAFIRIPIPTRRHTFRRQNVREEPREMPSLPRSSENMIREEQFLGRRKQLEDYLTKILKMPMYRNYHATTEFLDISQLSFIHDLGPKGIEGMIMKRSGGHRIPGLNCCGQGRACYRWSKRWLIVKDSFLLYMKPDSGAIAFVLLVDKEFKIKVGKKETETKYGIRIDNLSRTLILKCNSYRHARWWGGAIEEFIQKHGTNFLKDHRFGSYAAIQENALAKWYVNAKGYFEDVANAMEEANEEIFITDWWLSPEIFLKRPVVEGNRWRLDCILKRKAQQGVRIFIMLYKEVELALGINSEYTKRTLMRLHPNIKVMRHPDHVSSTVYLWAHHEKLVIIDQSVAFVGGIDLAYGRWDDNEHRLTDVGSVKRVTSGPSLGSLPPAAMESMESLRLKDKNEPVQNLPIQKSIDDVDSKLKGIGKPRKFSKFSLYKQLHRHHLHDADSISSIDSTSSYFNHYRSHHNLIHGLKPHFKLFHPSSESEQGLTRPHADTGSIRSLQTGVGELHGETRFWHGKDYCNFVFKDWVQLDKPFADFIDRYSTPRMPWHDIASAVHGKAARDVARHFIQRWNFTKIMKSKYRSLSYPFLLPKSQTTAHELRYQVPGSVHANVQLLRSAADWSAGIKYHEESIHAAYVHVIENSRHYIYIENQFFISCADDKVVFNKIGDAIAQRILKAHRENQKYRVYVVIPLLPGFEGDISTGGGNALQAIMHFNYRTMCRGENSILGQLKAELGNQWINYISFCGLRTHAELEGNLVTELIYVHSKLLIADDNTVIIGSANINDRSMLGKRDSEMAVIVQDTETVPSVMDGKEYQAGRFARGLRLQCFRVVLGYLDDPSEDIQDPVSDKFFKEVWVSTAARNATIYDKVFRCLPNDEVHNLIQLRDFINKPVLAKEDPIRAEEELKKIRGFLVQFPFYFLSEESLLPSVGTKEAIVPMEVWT
The next assay addresses Phospholipase D2 (Homo sapiens, UniProt O14939). The experiment in a line: PLD2 inhibitor potency in cells, dose response (AID 602147).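 Also: cellular assay in HEK293 cells overexpressing GFP-tagged PLD2.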 Type of assay: functional.
The target of assay [7] is T1, Hexokinase HKDC1 (Homo sapiens, UniProt Q2TB90).
T1 sequence (Q2TB90 whole entry): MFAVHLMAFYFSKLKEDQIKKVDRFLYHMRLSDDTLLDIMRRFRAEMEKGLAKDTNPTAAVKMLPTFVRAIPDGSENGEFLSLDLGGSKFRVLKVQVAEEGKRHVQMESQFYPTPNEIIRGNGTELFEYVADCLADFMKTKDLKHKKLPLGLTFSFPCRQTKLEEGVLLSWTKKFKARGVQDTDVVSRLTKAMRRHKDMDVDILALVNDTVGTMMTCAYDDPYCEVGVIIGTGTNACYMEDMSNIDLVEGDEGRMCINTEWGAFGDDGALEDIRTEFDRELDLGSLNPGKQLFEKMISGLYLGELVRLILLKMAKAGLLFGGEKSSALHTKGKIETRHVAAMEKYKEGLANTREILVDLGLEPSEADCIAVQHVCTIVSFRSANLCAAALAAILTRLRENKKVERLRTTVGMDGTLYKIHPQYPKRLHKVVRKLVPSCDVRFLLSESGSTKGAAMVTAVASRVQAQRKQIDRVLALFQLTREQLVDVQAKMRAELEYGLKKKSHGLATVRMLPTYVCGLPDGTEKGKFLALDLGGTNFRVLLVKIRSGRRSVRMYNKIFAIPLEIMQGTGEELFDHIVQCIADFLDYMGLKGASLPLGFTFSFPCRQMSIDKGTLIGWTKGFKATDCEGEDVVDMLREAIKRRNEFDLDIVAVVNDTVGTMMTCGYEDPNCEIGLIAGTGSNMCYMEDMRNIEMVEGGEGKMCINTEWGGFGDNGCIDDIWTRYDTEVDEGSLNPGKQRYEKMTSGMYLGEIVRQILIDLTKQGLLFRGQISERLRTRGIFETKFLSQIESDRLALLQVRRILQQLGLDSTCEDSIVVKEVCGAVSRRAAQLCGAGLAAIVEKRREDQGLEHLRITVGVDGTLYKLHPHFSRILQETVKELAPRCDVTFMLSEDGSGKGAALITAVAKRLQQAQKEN
The experiment in a line: HKDC1 hexokinase inhibitors, SAR follow-up, biochemical, set 2 (AID 588355). Type of assay: functional.

For assay [8], the target named is T2, Hexokinase-1 (Homo sapiens, UniProt P19367).
T2 sequence (P19367 whole entry): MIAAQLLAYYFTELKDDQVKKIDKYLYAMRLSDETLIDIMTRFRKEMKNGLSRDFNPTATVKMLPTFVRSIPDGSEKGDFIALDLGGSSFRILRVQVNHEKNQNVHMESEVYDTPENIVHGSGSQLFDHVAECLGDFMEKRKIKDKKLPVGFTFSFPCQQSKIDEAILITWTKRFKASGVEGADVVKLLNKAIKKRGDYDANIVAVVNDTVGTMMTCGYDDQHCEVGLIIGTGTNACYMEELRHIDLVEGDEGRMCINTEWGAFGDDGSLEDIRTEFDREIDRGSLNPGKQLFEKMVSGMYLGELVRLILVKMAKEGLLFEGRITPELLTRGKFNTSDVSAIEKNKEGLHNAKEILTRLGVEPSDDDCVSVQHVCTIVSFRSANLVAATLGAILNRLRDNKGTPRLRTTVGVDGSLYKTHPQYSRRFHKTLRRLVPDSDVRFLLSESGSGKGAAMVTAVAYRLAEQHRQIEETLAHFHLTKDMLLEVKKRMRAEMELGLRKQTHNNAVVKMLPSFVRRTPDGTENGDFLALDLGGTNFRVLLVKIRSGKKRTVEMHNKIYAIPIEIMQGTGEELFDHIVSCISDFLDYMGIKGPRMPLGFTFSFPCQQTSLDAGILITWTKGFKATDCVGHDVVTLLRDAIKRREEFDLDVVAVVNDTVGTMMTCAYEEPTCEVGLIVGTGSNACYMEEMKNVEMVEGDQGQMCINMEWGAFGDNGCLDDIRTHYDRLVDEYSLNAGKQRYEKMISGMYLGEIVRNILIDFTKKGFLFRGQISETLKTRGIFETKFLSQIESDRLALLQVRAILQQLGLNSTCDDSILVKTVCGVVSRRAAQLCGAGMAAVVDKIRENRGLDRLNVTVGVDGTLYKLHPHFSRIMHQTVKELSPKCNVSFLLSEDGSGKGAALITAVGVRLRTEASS
The experiment in a line: HK1 enzyme inhibition by HKDC1 hits, SAR follow-up, selectivity assay for HKDC1 inhibitor project, biochemical, set 2, resazurin fluorescence coupled readout (AID 588356). It counts as functional.

For assay [9], the target named is Heat shock protein HSP 90-alpha (Homo sapiens, UniProt P07900). It counts as functional, organism-based.
For assay [10], the target named is Dual specificity tyrosine-phosphorylation-regulated kinase 1A (Rattus norvegicus, UniProt Q63470). It counts as biochemical, Homo sapiens.
Assay [11] concerns the target T2, Hexokinase-1. The experiment in a line: SAR analysis of small molecule inhibitors of hexokinase domain containing I (HKDC1) in the hexokinase 1 selectivity assay. [Related pubchem assays (depositor defined):AID493160, AID493190]. Type of assay: functional.
Assay [12] deals with T1, Hexokinase HKDC1. The experiment in a line: SAR analysis of small molecule inhibitors of hexokinase domain containing I (HKDC1). [Related pubchem assays (depositor defined):AID493160, AID493190]. Type of assay: functional.
The subject of assay [13] is INS1. The experiment in a line: protection from cytokine-driven beta-cell apoptosis, dose response, JC-1 fluorescence, INS-1E, dry powder, set 2 (AID 488867). Type of assay: functional, cell-based. The settings on record: Rattus norvegicus.
The test system of assay [14] is INS1. The experiment in a line: protection of INS-1E cells from cytokine death, dose response, ATP luminescence, dry powder (AID 488844). Type of assay: functional, cell-based. The settings on record: Rattus norvegicus.
Assay [15] concerns INS1. The assay can be described thus: protection from cytokine-induced mitochondrial depolarization, dose response, cell-based, INS-1E, JC-1 fluorescence ratio, dry powder (AID 488931). It counts as functional. The settings on record: Rattus norvegicus.

Chain of Luciferin 4-monooxygenase (Q27757 whole entry): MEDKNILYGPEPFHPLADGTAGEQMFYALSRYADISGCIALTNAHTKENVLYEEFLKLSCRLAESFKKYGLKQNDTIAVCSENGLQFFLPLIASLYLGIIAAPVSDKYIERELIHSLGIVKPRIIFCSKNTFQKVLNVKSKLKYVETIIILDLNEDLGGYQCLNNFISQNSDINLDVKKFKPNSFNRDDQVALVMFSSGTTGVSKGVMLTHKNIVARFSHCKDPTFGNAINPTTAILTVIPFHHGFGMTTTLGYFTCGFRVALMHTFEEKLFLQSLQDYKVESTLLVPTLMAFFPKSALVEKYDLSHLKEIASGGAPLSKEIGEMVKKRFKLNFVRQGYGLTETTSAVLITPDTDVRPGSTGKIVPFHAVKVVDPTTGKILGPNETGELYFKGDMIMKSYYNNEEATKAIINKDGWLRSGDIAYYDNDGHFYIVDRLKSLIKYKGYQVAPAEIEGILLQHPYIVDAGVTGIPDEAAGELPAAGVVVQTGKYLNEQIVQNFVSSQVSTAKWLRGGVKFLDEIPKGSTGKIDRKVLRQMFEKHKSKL
Chain of Phospholipase D2 (O14939 whole entry): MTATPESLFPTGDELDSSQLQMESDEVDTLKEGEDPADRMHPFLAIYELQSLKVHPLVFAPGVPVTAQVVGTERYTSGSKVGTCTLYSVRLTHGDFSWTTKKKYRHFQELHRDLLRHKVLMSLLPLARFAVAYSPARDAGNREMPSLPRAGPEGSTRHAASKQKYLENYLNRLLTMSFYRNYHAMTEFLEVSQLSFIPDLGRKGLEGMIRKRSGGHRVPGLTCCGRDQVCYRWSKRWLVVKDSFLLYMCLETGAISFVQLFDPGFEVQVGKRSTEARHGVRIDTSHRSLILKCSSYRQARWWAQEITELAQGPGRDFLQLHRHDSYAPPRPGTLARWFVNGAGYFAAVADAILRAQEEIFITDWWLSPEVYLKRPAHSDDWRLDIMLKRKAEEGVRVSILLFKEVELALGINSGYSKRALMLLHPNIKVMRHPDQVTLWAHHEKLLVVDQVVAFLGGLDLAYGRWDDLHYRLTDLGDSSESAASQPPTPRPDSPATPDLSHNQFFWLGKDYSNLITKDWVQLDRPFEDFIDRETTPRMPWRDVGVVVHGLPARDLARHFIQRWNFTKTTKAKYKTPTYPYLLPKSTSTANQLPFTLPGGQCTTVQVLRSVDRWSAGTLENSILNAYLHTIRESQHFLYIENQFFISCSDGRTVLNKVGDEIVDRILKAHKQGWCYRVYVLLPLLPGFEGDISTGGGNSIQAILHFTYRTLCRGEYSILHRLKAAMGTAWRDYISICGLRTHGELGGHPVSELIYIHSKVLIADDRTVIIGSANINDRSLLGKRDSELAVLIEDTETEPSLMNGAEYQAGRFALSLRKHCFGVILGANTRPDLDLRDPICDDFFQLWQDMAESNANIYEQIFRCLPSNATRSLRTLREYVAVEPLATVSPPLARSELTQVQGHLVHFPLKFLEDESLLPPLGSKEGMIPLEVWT

As usually defined, the AC50 is the concentration giving half of the maximal activity seen. For the molecule `CCCN(Cc1ccc(C)cc1)C(=O)c1ccc(CNS(=O)(=O)c2ccc(C(C)=O)cc2)cc1`, in the assay with HeLa, the AC50 is 37.4 µM (active).

The IC50 is the concentration needed to halve the response being measured. Broadly, the EC50 is the concentration needed to bring the measured effect to its halfway point. As for `C[C@@H]1C[C@H]2[C@@H]3CCC4=CC(=O)C=C[C@]4(C)[C@@]3(F)[C@@H](O)C[C@]2(C)[C@@]1(O)C(=O)CO` [DEXAMETHASONE], the values for the IC50 in [1] and in [3] were > 16 µM (inactive) and < 0.25 µM (active), respectively. Moreover, the concentration for a half-maximal effect (EC50) in assay [2], in assay [4] and in [6] was > 120 µM (not active) throughout. Further, the AC50 in assay [5] was > 52 µM (inactive).

On to `C[C@@H](CN1CCC2(CC1)C(=O)NCN2c1ccc(F)c(F)c1)NC(=O)c1ccc2ccccc2c1`, for which the results for the half-inhibitory concentration (IC50) at Phospholipase D1 and on Phospholipase D2 were 0.1 µM (active) and 0.3 µM (active), respectively.

With `Cc1ccc(NC2c3ccccc3C(=O)N2c2ccccc2C)cc1` (stereo not drawn), the IC50 at Hexokinase HKDC1 [7] and on Hexokinase-1 [8] was > 80 µM (inactive) throughout.

Take `O=[N+]([O-])c1cc(/C=N/O)ccc1Oc1ccccc1Cl`: the figures for the AC50 in [9] and in assay [10] were 3.04 µM (active) and 3.19 µM (active), respectively.

As to `Nc1n[nH]c(SCC(=O)Nc2cc(S(=O)(=O)N3CCOCC3)ccc2Cl)n1`, the IC50 at Hexokinase-1 [11] and at Hexokinase HKDC1 [12] was > 80 µM (inactive) in each case.

As for `COc1ccc(S(=O)(=O)N(C)C[C@@H]2Oc3c(NC(=O)Nc4ccccc4)cccc3C(=O)N([C@H](C)CO)C[C@H]2C)cc1`, the figures for the AC50 in the assay on INS1 [13], in the assay on INS1 [14] and in the assay on INS1 [15] were > 260 µM (inactive), 22.8 µM (active) and > 195 µM (inactive), respectively.
